Values of other authors, collected in PMC3719006, “Safety, tolerability, pharmacokinetics, and pharmacodynamics of a long-acting release (LAR) formulation of pasireotide (SOM230) in patients with gastroenteropancreatic neuroendocrine tumors: results from a randomized, multicenter, open-label, phase I study” (Cancer Chemotherapy and Pharmacology, 2013).

What was measured:
sst2 receptor = tested on: sst2 receptor
From the text: (§1) Somatostatin inhibits hormone release and cell growth through binding to specific, cell surface, G-protein–coupled receptors, of which five distinct subtypes (sst1–5) have been characterized. In pancreatic and gastrointestinal endocrine tumors, sst2 expression predominates, although multiple other subtypes have also been found. […] Development of the somatostatin an ...

sst5 receptor = tested on: sst5 receptor
From the text: as §1

[1] = SC formulation
[2] = tested on: somatostatin receptor subtypes (sst1–3,5); set-up: method as in PMID 17977644; conditions: four of the five somatostatin receptor subtypes
[3] = native somatostatin
Description: Somatostatin inhibits hormone release and cell growth through binding to specific, cell surface, G-protein–coupled receptors, of which five distinct subtypes (sst1–5) have been characterized. In pancreatic and gastrointestinal endocrine tumors, sst2 expression predominates, although multiple other subtypes have also been found. The limited clinical use of native somatostatin, because of its very short half-life (<3 min) and the impact of rebound hypersecretion, has necessitated the development of more clinically useful analogs. Development of the somatostatin an ...

In the case of octreotide, the binding affinity (sst2 receptor) is given as “binds with high affinity” and the binding affinity (sst5 receptor) is given as “lower binding affinity”.

For pasireotide, the “PK exposure difference between patients with GEP NET and healthy volunteers” value [1] is listed as “twofold” and the binding affinity [2] is listed as “binds with high affinity”.

In the case of “somatostatin: native hormone that inhibits hormone release and cell growth via sst1–5”, the half-life [3] is given as < 3 min.
